Test results published in patent US12558383B2, “American cockroach extract, preparation thereof, preparation methods therefor and applications thereof” (SICHUAN GOOD DOCTOR PANXI PHARMACEUTICAL CO., LTD, priority 2019, dated 2026).
Marks after values point to notes of the source that are not given here.

What was measured:
[1] = test system: NO release, LPS induced mouse macrophages (RAW264.7); assay: NO release of LPS-stimulated RAW264.7 macrophages (Griess method); assay type: cell-based; conditions: positive drug andrographolide group; LPS 1 μg/mL, NO at 12 h; n=3
Description: (§1) Based on TNF-a-IL-6/iNOS-NO inflammatory signal pathway, the regulatory effects of drugs MLG, MLP and MLX on LPS induced inflammation of mouse macrophages (RAW264.7) were evaluated.
(§2) The original solution of drugs MLG, MLP and MLX was diluted by 80 times, 120 times and 160 times, respectively, incubated with cells for 12 h in advance, and used to stimulate cells to induce inflammation by a final concentration of 1 μg/ml LPS. Enzyme linked immunosorbent assay (ELISA) and Griess method were used to detect the release amount of TNF-α at 50 min, and IL-6 at 4 h and NO at 12 h upon LPS stimulation.
(§3) The original solution of drugs MLG, MLP and MLX was diluted by 80 times, 120 times and 160 times respectively, incubated with cells for 12 hours in advance, and then added with 1 μg/mL LPS to stimulate cell inflammation. […]
(§4) All indexes were tested strictly in accordance with the instructions of kits. Finally, the absorbance value at the specific wavelengths were detected on an enzyme labeling instrument, and the content of indexes of each sample were calculated according to the standard curve prepared by the same method. If the absorbance value is lower than the absorbance value of the sample at the lower limit of the standard curve, it is counted as lower than the relevant value, and the relevant statistics are calculated as 0 mean and 0 variance.

[2] = test system: IL-6 release, LPS induced mouse macrophages (RAW264.7); assay: IL-6 release of LPS-stimulated RAW264.7 macrophages (ELISA); assay type: cell-based; conditions: positive drug andrographolide group; LPS 1 μg/mL, IL-6 at 4 h; n=3
Description: as §1, §2, §3, §4

[3] = test system: TNF-α release, LPS induced mouse macrophages (RAW264.7); assay: TNF-α release of LPS-stimulated RAW264.7 macrophages (ELISA); assay type: cell-based; conditions: positive drug andrographolide group; LPS 1 μg/mL, TNF-α at 50 min; n=3
Description: as §1, §2, §3, §4

[4] = test system: skin capillary permeability induced by xylene in mice; assay: Increase of skin capillary permeability induced by xylene in mice (Evans blue); assay type: in vivo; conditions: extracts 2 mL/kg intragastric, dexamethasone 0.375 mg/kg, once a day 7 times
Description: Fifty mice weighing 18-22 g were randomly divided into five groups according to their body weights: MLX, MLG and MLP test groups. […] One hour after the last administration, various mice were injected with 0.5% Evans blue normal saline solution by 0.1 ml/10 g bw via caudal vein, and then xylene were dropped by 30 μL/per mouse on the abdominal skin depilated 24 hours in advance. After 20 minutes, the mice were killed by removing the cervical vertebra. The blue stained skin on the abdomen was cut off, and cut into pieces with surgical scissors, placed into a test tube with a plug, added with and soaked in 5 ml of acetone normal saline (7:3), placed in the dark for 72 hours, and centrifuged at 3000 r/min for 10 minutes to obtain a supernatant. Colorimetric detection was performed at the wavelength of 590 nm on a spectral scanning multifunctional reader to measure the absorbance (OD value). The permeability is represented by OD value, and the results are statistically compared.

[5] = test system: cotton ball granuloma in mice; assay: Cotton ball granuloma in mice; assay type: in vivo; conditions: extracts 2 mL/kg, dexamethasone 0.2 mg/kg, 7 consecutive days, n=10
Description: Fifty mice weighing 18-22 g were taken, 10/group, half male and half female. The mice were fixed, and disinfected on the chest with iodine. Iodine was removed with 75% alcohol cotton ball. A small hole was cut in the chest, 20 mg high-pressure sterilized cotton ball was implanted into the armpit subcutaneously from the incision with ophthalmic forceps, and then the skin was sutured. […] The above groups were administrated for 7 consecutive days. Before the end of the test on the 8th day, the body weight was measured, then the mice were killed by taking off the cervical vertebra. The implanted cotton ball was taken out together with the surrounding connective tissue, removed of the adipose tissue, wet weighted, placed into the oven at 60° C. for 24 hours, and weighed on a precision balance. The weight of granuloma was obtained by subtracting the original weight of cotton ball from the weighed weight, and the comparison and statistical analysis between groups were carried out.

Structure (SMILES)	NO [1] [µM]	IL-6 [2] [pg/mL]	TNF-α [3] [pg/mL]	inhibition at 0.375 mg/kg ([4]; Mus musculus, po, 168 h, n=10, read-out: Inhibitory rate) [%]	Inhibitory rate ([4]; n=10) [%]	Dry weigh of granuloma [5]	Wet weigh of granuloma [5] [mg]
C=C1CC[C@@H]2[C@](C)(CO)[C@H](O)CC[C@@]2(C)[C@@H]1C/C=C1/C(=O)OC[C@H]1O [Andro., andrographolide]	1.86 ± 0.34	286.07 ± 47.81	592.26 ± 45.7	–	–	–	–
C[C@@H]1C[C@H]2[C@@H]3CCC4=CC(=O)C=C[C@]4(C)[C@@]3(F)[C@@H](O)C[C@]2(C)[C@@]1(O)C(=O)CO [dexamethasone]	–	–	–	> 80	80.7	35.63 ± 8.38**^ mg	252.3 ± 33.6
